Where two headings read alike, the source gives them in different places.
Experiments:
[1] = target: T1, PKC epsilon (Homo sapiens, UniProt Q02156); experiment: Biochemical assay for PKC epsilon (fluorescence polarization, Protein Kinase C Assay Kit, Red); conditions: read-out: IC50 μM PKCε
T1 construct: purchased Invitrogen P2282
T1 sequence (Q02156 1-737): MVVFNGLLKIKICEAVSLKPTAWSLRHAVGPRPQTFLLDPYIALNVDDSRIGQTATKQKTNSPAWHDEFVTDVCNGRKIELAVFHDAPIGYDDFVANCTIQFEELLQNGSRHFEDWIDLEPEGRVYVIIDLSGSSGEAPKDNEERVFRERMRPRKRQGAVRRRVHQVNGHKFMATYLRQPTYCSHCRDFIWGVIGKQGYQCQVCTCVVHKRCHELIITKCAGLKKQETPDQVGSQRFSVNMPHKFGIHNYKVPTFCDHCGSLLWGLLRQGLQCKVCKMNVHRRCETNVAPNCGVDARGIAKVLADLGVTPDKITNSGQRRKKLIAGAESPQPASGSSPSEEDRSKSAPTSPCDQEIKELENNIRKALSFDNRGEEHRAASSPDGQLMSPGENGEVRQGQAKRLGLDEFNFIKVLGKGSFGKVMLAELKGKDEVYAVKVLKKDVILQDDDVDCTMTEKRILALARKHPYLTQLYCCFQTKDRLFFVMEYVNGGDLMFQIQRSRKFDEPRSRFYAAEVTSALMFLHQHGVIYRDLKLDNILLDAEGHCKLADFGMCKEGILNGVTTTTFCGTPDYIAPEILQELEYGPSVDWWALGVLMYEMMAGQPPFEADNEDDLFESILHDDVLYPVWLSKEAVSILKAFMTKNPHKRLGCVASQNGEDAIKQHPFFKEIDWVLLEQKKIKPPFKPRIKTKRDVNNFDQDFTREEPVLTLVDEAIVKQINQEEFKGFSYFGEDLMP
Protocol: The compounds were tested for inhibition of PKC epsilon.
The inhibition assays were performed with a fluorescence polarization (FP) assay using the commercially available Protein Kinase C Assay Kit, Red, from Invitrogen (Product ID. No. P2941), essentially in accordance with the protocol supplied by the manufacturer. […] The isozyme PKC epsilon was also obtained from Invitrogen (Product ID No. P2282).
Staurosporine was used as a positive control (2 μM).
To perform the assay, 2 μl of a solution of the compound to be tested in DMSO (at each concentration) was added to 6 μl of a solution of the enzyme in 10 mM HEPES, 5 mM dithiotreitol, 0.1% Triton X-100, pH 7.4. The final concentration of the enzymes was 10 ng/ml.
After incubating for 30 minutes at room temperature, 4 μl of a mixture of ATP and the protein substrate in 60 mM HEPES (pH7.4), 15 mM MgCl2, 0.3 mM CaCl2, 0.06% NP40 was added.
After incubating for 80 minutes at room temperature, 3 μl of a mix solution of 500 mM EDTA (stop solution) and the Rhodamine-based PKC Red Tracer (from the Protein Kinase C Assay Kit) in BGG/phosphate buffer (pH7.4) with 0.02% NaN3 and 0.1% Triton X-100 was added and 5 μl of a the Anti-Phosphoserine antibody (also from the Protein Kinase C Assay Kit) in BGG/phosphate buffer (pH7.4) with 0.02% NaN3.
The results were fitted to a curve using the XL-Fit algorithm and […] were calculated for each fitted curve, again using the XL-Fit algorithm.

[2] = target: T2, human ROCKα/ROCKII mix (Homo sapiens, UniProt O75116); experiment: Biochemical assay for ROCK (fluorescence polarization, ROCK IMAP Kit)
T2 construct: purchased Upstate Biotechnology 14-451
Protocol: The compounds were tested for inhibition of human ROCKα/ROCKII mix.
The inhibition assays were performed with a fluorescence polarization (FP) assay using the commercially available ROCK IMAP Kit from Molecular Devices (Product ID. No. R8093), essentially in accordance with the protocol supplied by the manufacturer. […] The enzyme mix ROCKα/ROCKII was obtained from Upstate Biotechnology (Product ID No 14-451).
In summary, the compound was screened in the wells of a 384 well plate for enzymatic inhibition with concentrations varying from 100 μM to 0.3 nM using a stepwise 3 (or 2)-fold dilution.
To perform the assay, 1 μl of a solution of the compound to be tested in DMSO (at each concentration) was added to 2 μl of a solution of the enzyme in 10 mM Tris-HCl , 10 mM MgCl2, 0.1% BSA, 0.05% NaN3, pH 7.2. The final concentration of the enzyme was 2.6 nM.
After incubating for 30 minutes at room temperature, 2 μl of a mixture of ATP and the protein substrate in 10 mM Tris-HCl, 10 mM MgCl2, 0.1% BSA, 0.05% NaN3, pH 7.2 was added. The final concentration of the ATP was 10 μM and final concentration of protein substrate was 0.2 μM.
After incubating for 60 minutes at room temperature, 12 μl of the IMAP Binding Solution (mix of the IMAP Binding Buffer A (1×) and the IMAP Binding Reagent (from the ROCK IMAP kit)) was added.
The mixture thus obtained (total volume: 17 μl) was incubated for 60 minutes at room temperature, upon which the fluorescence polarization was measured using an automated plate reader (Perkin Elmer, Model Envision 2100-0010 HTS) with FP filters: excitation filter FITC FP 480 and emission filters FITC FP P-pol 535 and FITC FP S-pol 535 (Perkin-Elmer). The results were fitted to a curve using the XL-Fit algorithm and IC50 values were calculated for each fitted curve, again using the XL-Fit algorithm.

[3] = compounds of Formula XIV, Table 3
[4] = Table 2, compounds of Formula XIII

T2 sequence (O75116 11-552 limits assumed): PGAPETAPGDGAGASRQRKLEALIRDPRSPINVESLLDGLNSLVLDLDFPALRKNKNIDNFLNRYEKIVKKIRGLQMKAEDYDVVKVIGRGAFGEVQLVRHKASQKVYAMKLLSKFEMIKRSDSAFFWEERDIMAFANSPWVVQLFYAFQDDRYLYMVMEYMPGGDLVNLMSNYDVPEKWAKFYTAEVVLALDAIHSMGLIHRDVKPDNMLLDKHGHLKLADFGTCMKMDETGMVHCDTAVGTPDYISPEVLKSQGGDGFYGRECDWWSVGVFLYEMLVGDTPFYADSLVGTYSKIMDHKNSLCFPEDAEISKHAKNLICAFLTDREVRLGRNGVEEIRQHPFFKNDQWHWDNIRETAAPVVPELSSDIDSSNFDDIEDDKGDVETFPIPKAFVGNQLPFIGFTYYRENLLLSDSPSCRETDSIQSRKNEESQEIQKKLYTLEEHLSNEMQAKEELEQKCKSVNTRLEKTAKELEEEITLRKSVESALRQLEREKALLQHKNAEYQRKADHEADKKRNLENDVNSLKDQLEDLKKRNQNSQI

IC50 [2] | Molecule | further results
0.5 to 5 µM | 4-(1-Amino-2-{[1-(4-chloro- phenyl)- cyclobutanecarbonyl]- methyl- amino}-ethyl)- N-pyridin-4-yl-benzamide [Compound 464] | –
0.5 to 5 µM | 4-(1-Amino-2-{[1-(4-fluoro- phenyl)- cyclopropanecarbonyl]- methyl- amino}-ethyl)- N-pyridin-4-yl-benzamide [Compound 473] | –
5 to 50 µM | 4-(1-Amino-2-{[2-(2,3,4- trimethoxy-phenyl)-acetyl]- methyl-amino}-ethyl)-N- pyridin-4-yl-benzamide [Compound 431] | –
0.5 to 5 µM | 4-(1-Amino-2-{[2-(4-chloro- phenyl)-2-methyl-propionyl]- methyl- amino}-ethyl)- N-pyridin-4-yl-benzamide [Compound 462] | –
0.5 to 5 µM | 4-(1-Amino-2-{[2-(4-fluoro- phenyl)-2-methyl-propionyl]- methyl- amino}-ethyl)- N-pyridin-4-yl-benzamide [Compound 472] | –
0.5 to 5 µM | 4-{Amino-[1-(2-methyl-2-thiophen-2-yl-propionyl)-pyrrolidin-2-yl]-methyl}-N-pyridin-4-yl-benzamide [Compound 548] | –
0.05 to 0.5 µM | Cc1ccccc1CNC(=O)NCC(N)c1ccc(C(=O)Nc2ccncc2)cc1 (centres unmarked) [Compound 9, 4-{1-amino-2-[3-(2-methyl-benzyl)-ureido]-ethyl}-N-pyridin-4-yl-benzamide] | –
0.05 to 0.5 µM | COc1ccc(CNC(=O)NCC(N)c2ccc(C(=O)Nc3ccncc3)cc2)cc1 (centres unmarked) [Compound 10, 4-{1-amino-2-[3-(4-methoxy-benzyl)-ureido]-ethyl}-N-pyridin-4-yl-benzamide] | –
0.05 to 0.5 µM | COc1ccc(Cl)cc1NC(=O)NCC(N)c1ccc(C(=O)Nc2ccncc2)cc1 (centres unmarked) [Compound 27, 4-{1-amino-2-[3-(5-chloro-2-methoxy-phenyl)-ureido]-ethyl}-N-pyridin-4-yl-benzamide] | –
0.5 to 5 µM | CN(CC(N)c1ccc(C(=O)Nc2ccncc2)cc1)C(=O)Cc1ccc(F)c(F)c1 (centres unmarked) [Compound 484, 4-(1-Amino-2-{[2-(3,4-difluoro-phenyl)-acetyl]-methyl-amino}-ethyl)-N-pyridin-4-yl-benzamide] | –

The remaining lines, values behind:

Molecule | IC50 [2] | further results
4-(1-Amino-2- phenethylcarbamoyl-ethyl)- N-pyridin-4-yl-benzamide [Compound 281] | – | IC50 [1, 3]: 0.5 to 5 µM; IC50 [2, 3]: 0.05 to 0.5 µM
4-(1-Amino-2-nonanoylamino-ethyl)- N-pyridin-4-yl-benzamide [Compound 38] | – | IC50 [1, 4]: 0.5 to 5 µM; IC50 [2, 4]: 0.05 to 0.5 µM
4-(1-Amino-2-{[1-(4-chloro- phenyl)- cyclopentanecarbonyl]- methyl- amino}-ethyl)- N-pyridin-4-yl-benzamide [Compound 465] | 0.5 to 5 µM | –
4-(1-Amino-2-{[1-(4-chloro- phenyl)- cyclopropanecarbonyl]- methyl- amino}-ethyl)- N-pyridin-4-yl-benzamide [Compound 463] | 0.5 to 5 µM | –
4-(1-Amino-2-{[2-(2-fluoro- phenyl)-acetyl]-methyl- amino}-ethyl)- N-pyridin-4-yl-benzamide [Compound 466] | 0.5 to 5 µM | IC50 [1]: 5 to 50 µM
4-(1-Amino-2-{[2-(3-bromo- phenyl)-acetyl]-methyl- amino}-ethyl)- N-pyridin-4-yl-benzamide [Compound 456] | 0.5 to 5 µM | IC50 [1]: 5 to 50 µM
4-(1-Amino-2-{[2-(3-chloro- phenyl)-acetyl]-methyl- amino}-ethyl)- N-pyridin-4-yl-benzamide [Compound 459] | 0.5 to 5 µM | IC50 [1]: 5 to 50 µM
4-(1-Amino-2-{[2-(3-fluoro-4- methoxy-phenyl)-acetyl]- methyl- amino}-ethyl)- N-pyridin-4-yl-benzamide [Compound 470] | 0.5 to 5 µM | IC50 [1]: 5 to 50 µM
4-(1-Amino-2-{[2-(3-fluoro- phenyl)-acetyl]-methyl- amino}-ethyl)- N-pyridin-4-yl-benzamide [Compound 468] | 0.5 to 5 µM | IC50 [1]: 5 to 50 µM
4-(1-Amino-2-{[2-(4- hydroxy-3-nitro-phenyl)- acetyl]-methyl- amino]-ethyl)- N-pyridin-4-yl-benzamide [Compound 439] | 0.05 to 0.5 µM | IC50 [1]: 5 to 50 µM
4-(1-Amino-2-{[2-(4- trifluoromethyl-phenyl)- acetyl]-methyl- amino}-ethyl)- N-pyridin-4-yl-benzamide [Compound 458] | 0.5 to 5 µM | IC50 [1]: 5 to 50 µM
4-(Amino-{1-[2-(4-fluoro-phenyl)-2-methyl-propionyl]-pyrrolidin-2-yl}-methyl)-N-pyridin-4-yl-benzamide [Compound 586] | 0.5 to 5 µM | –
4-[1-Amino-2-(methyl- phenethyl-carbamoyl)-ethyl]- N-pyridin-4-yl-benzamide [Compound 282] | – | IC50 [2, 3]: 0.05 to 0.5 µM
NC(CNC(=O)Nc1ccc(F)cc1)c1ccc(C(=O)Nc2ccncc2)cc1 (centres unmarked) [Compound 19, 4-{1-amino-2-[3-(4-fluoro-phenyl)-ureido]-ethyl}-N-pyridin-4-yl-benzamide] | 0.05 to 0.5 µM | –
NC(CNC(=O)c1ccc2ccccc2n1)c1ccc(C(=O)Nc2ccncc2)cc1 (centres unmarked) [Compound 112, Quinoline-2-carboxylic acid {2-amino-2-[4-(pyridin-4-ylcarbamoyl)-phenyl]-ethyl}-amide] | – | IC50 [2, 4]: 0.05 to 0.5 µM
CN(Cc1ccccc1)C(=O)CC(N)c1ccc(C(=O)Nc2ccncc2)cc1 (centres unmarked) [Compound 214, 4-[1-Amino-2-(benzyl-methyl-carbamoyl)-ethyl]-N-pyridin-4-yl-benzamide] | – | IC50 [2, 3]: 0.05 to 0.5 µM
Cc1ccc(NC(=O)CC(N)c2ccc(C(=O)Nc3ccncc3)cc2)cc1 (centres unmarked) [Compound 317, 4-(1-Amino-2-p-tolylcarbamoyl-ethyl)-N-pyridin-4-yl-benzamide] | – | IC50 [2, 3]: 0.05 to 0.5 µM
CN(CC(N)c1ccc(C(=O)Nc2ccncc2)cc1)C(=O)C1CC(=O)c2ccccc21 (centres unmarked) [Compound 508, 3-Oxo-indan-1-carboxylic acid {2-amino-2-[4-(pyridin-4-ylcarbamoyl)-phenyl]-ethyl}-methyl-amide] | 0.5 to 5 µM | –
CC(C)(C(=O)N1CCCC1C(N)c1ccc(C(=O)Nc2ccncc2)cc1)c1ccsc1 (centres unmarked) [Compound 550, 4-{Amino-[1-(2-methyl-2-thiophen-3-yl-propionyl)-pyrrolidin-2-yl]-methyl}-N-pyridin-4-yl-benzamide] | 0.5 to 5 µM | –

Source: patent US20100168102A9, “Amide Derivatives as Kinase Inhibitors” (Devgen NV, priority 2005, published 2010)
